Experimental data: US12662489B2 (Sitryx Therapeutics Limited, priority 2023, dated 2026)

Tests used:
[1] = target: T1, MTHFD1 recombinant human enzyme (Homo sapiens, UniProt P11586); assay: MTHFD1 inhibition assay (NAD(P)H-Glo luminescence); settings: MTHFD1 IC50, recombinant human enzyme 200 nM, NADP, band
T1 sequence (P11586 2-291 limits assumed): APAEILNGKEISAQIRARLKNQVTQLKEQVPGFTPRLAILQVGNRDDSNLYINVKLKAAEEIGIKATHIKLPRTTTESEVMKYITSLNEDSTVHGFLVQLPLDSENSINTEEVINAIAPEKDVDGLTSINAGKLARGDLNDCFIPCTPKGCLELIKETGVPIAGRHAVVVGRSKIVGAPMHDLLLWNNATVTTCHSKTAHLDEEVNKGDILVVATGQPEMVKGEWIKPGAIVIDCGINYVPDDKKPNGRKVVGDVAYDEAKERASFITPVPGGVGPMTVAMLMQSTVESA

[2] = target: T2, MTHFD2 recombinant human enzyme (Homo sapiens, UniProt P13995); assay: MTHFD2 inhibition assay (NAD(P)H-Glo luminescence); settings: for MTHFD1/MTHFD2 IC50 ratio: selectivity of MTHFD2 inhibition over MTHFD1, band
T2 sequence (P13995 36-350): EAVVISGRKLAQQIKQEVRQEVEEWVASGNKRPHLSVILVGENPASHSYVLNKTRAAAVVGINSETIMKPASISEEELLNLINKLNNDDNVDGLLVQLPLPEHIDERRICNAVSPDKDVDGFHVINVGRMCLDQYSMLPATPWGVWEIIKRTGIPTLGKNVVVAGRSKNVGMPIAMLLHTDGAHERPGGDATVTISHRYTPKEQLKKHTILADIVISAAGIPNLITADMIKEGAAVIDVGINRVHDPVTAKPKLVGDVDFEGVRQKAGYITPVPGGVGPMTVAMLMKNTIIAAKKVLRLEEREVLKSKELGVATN

human CD4+ T cells = assay: Human CD4+ T-cell proliferation assay (CFSE, CD3/28 beads); settings: read-out: Proliferation IC50

| IC50 [1] | IC50 [2] | MTHFD1/MTHFD2 IC50 ratio [2] | SMILES | IC50 (human CD4+ T cells) |
| --- | --- | --- | --- | --- |
| 0.1 to 1 µM | 0.001 to 0.01 µM | J (>30) | COC[C@H]1CN(c2cc(C)c3c4c(c(=O)oc3c2C)CN(C(=O)c2ccc(C(=O)NS(=O)(=O)N3CCCC3)c(F)c2)CC4)CCN1C [Example 265, (R)-2-fluoro-4-(8-(3-(methoxymethyl)-4-methylpiperazin-1-yl)-7,10-dimethyl-5-oxo-1,3,4,5-tetrahydro-2H-chromeno[3,4-c]pyridine-3-carbonyl)-N-(pyrrolidin-1-ylsulfonyl)benzamide] | 0.1 to 1 µM |
| 0.1 to 1 µM | 0.001 to 0.01 µM | J (>30) | [2H]C([2H])([2H])Oc1cc(C(=O)N2CCc3c(c(=O)oc4c(C)c(N5CCN(C)[C@@H](COC)C5)cc(C)c34)C2)c(F)cc1C(=O)NS(=O)(=O)N1CCCC1 [Example 225, (R)-5-fluoro-2-(methoxy-d3)-4-(8-(3-(methoxymethyl)-4-methylpiperazin-1-yl)-7,10-dimethyl-5-oxo-1,3,4,5-tetrahydro-2H-chromeno[3,4-c]pyridine-3-carbonyl)-N-(pyrrolidin-1-ylsulfonyl)benzamide] | 0.03 to 0.1 µM |
| 0.1 to 1 µM | 0.001 to 0.01 µM | J (>30) | COC[C@H]1CN(c2cc(Cl)c3c4c(c(=O)oc3c2C)CN(C(=O)c2cc(N(C)C)c(C(=O)NS(=O)(=O)N3CC5(CCC5)C3)cc2F)CC4)CCN1C [Example 318, (R)-N-((2-azaspiro[3.3]heptan-2-yl)sulfonyl)-4-(10-chloro-8-(3-(methoxymethyl)-4-methylpiperazin-1-yl)-7-methyl-5-oxo-1,3,4,5-tetrahydro-2H-chromeno[3,4-c]pyridine-3-carbonyl)-2-(dimethylamino)-5-fluorobenzamide] | 0.01 to 0.03 µM |
| 0.1 to 1 µM | 0.01 to 0.1 µM | J (>30) | CCOc1cc(C(=O)N2CCc3c(c(=O)oc4c(C)c(N5CCN(C)[C@@H](COC)C5)cc(C)c34)C2)c(Cl)cc1C(=O)NS(=O)(=O)N1CCCC1 [Example 330, (R)-5-chloro-2-ethoxy-4-(8-(3-(methoxymethyl)-4-methylpiperazin-1-yl)-7,10-dimethyl-5-oxo-1,3,4,5-tetrahydro-2H-chromeno[3,4-c]pyridine-3-carbonyl)-N-(pyrrolidin-1-ylsulfonyl)benzamide] | 0.1 to 1 µM |
| 0.1 to 1 µM | 0.01 to 0.1 µM | J (>30) | CCOc1cc(C(=O)N2CCc3c(c(=O)oc4c(C)c(N5CCN(C)[C@@H](COC)C5)cc(CC)c34)C2)c(F)cc1C(=O)NS(=O)(=O)N1CCCC1 [Example 244, (R)-2-ethoxy-4-(10-ethyl-8-(3-(methoxymethyl)-4-methylpiperazin-1-yl)-7-methyl-5-oxo-1,3,4,5-tetrahydro-2H-chromeno[3,4-c]pyridine-3-carbonyl)-5-fluoro-N-(pyrrolidin-1-ylsulfonyl)benzamide] | 0.1 to 1 µM |
| 1 to 5 µM | 0.01 to 0.1 µM | J (>30) | COC[C@H]1CN(c2cc(C)c3c4c(c(=O)oc3c2C)CN(C(=O)c2cc(OC3CCCC3)c(C(=O)NS(=O)(=O)N3CCCC3)c(C(F)(F)F)c2)CC4)CCN1C [Example 129, (R)-2-(cyclopentyloxy)-4-(8-(3-(methoxymethyl)-4-methylpiperazin-1-yl)-7,10-dimethyl-5-oxo-1,3,4,5-tetrahydro-2H-chromeno[3,4-c]pyridine-3-carbonyl)-N-(pyrrolidin-1-ylsulfonyl)-6-(trifluoromethyl)benzamide] | 0.1 to 1 µM |
| 0.1 to 1 µM | 0.001 to 0.01 µM | J (>30) | COC[C@H]1CN(c2cc(C)c3c4c(c(=O)oc3c2C)CN(C(=O)c2cc(OC)c(C(=O)NS(=O)(=O)N3CCCC3)cc2F)CC4)CCN1C [Example 224, (R)-5-fluoro-2-methoxy-4-(8-(3-(methoxymethyl)-4-methylpiperazin-1-yl)-7,10-dimethyl-5-oxo-1,3,4,5-tetrahydro-2H-chromeno[3,4-c]pyridine-3-carbonyl)-N-(pyrrolidin-1-ylsulfonyl)benzamide] | 0.03 to 0.1 µM |
| 0.1 to 1 µM | 0.01 to 0.1 µM | H (>9.0 to 30) | COC[C@H]1CN(c2cc(C)c3c4c(c(=O)oc3c2C)CN(C(=O)c2cc(N(C)C)c(C(=O)NS(=O)(=O)N(C3CC3)C3CC3)cc2F)CC4)CCN1C [Example 276, (R)-N-(N,N-dicyclopropylsulfamoyl)-2-(dimethylamino)-5-fluoro-4-(8-(3-(methoxymethyl)-4-methylpiperazin-1-yl)-7,10-dimethyl-5-oxo-1,3,4,5-tetrahydro-2H-chromeno[3,4-c]pyridine-3-carbonyl)benzamide] | 0.001 to 0.01 µM |

Further lines, the compound ahead of its results:

| SMILES | IC50 [1] | IC50 [2] | MTHFD1/MTHFD2 IC50 ratio [2] | IC50 (human CD4+ T cells) |
| --- | --- | --- | --- | --- |
| [2H]C([2H])([2H])Oc1cc(C(=O)N2CCc3c(c(=O)oc4c(C)c(N5CCN(C)[C@@H](COC)C5)cc(C)c34)C2)c(F)cc1C(=O)NS(=O)(=O)N1C2CCC1CC2 [Example 250, (R)-N-((7-azabicyclo[2.2.1]heptan-7-yl)sulfonyl)-5-fluoro-2-(methoxy-d3)-4-(8-(3-(methoxymethyl)-4-methylpiperazin-1-yl)-7,10-dimethyl-5-oxo-1,3,4,5-tetrahydro-2H-chromeno[3,4-c]pyridine-3-carbonyl)benzamide] | 1 to 5 µM | 0.001 to 0.01 µM | J (>30) | 0.03 to 0.1 µM |
| COC[C@H]1CN(c2cc(C)c3c4c(c(=O)oc3c2C)CN(C(=O)c2ccc(C(=O)NS(=O)(=O)N3C5CCC3CC5)c(OC)c2)CC4)CCN1C [Example 226, (R)-N-((7-azabicyclo[2.2.1]heptan-7-yl)sulfonyl)-2-methoxy-4-(8-(3-(methoxymethyl)-4-methylpiperazin-1-yl)-7,10-dimethyl-5-oxo-1,3,4,5-tetrahydro-2H-chromeno[3,4-c]pyridine-3-carbonyl)benzamide] | 0.1 to 1 µM | 0.01 to 0.1 µM | J (>30) | 0.03 to 0.1 µM |
| COC[C@H]1CN(c2cc(C)c3c4c(c(=O)oc3c2C)CN(C(=O)c2ccc(C(=O)NS(=O)(=O)N3C5CCC3CC5)c(C)c2F)CC4)CCN1C [Example 241] | 0.1 to 1 µM | 0.01 to 0.1 µM | H (>9.0 to 30) | 0.1 to 1 µM |
| COC[C@H]1CN(c2cc(C)c3c4c(c(=O)oc3c2C)CN(C(=O)c2cc(OC3CCC3)c(C(=O)NS(=O)(=O)C3(C)CC3)c(C(F)(F)F)c2)CC4)CCN1C [Example 130, (R)-2-cyclobutoxy-4-(8-(3-(methoxymethyl)-4-methylpiperazin-1-yl)-7,10-dimethyl-5-oxo-1,3,4,5-tetrahydro-2H-chromeno[3,4-c]pyridine-3-carbonyl)-N-((1-methylcyclopropyl)sulfonyl)-6-(trifluoromethyl)benzamide] | 1 to 5 µM | 0.01 to 0.1 µM | J (>30) | 1 to 5 µM |
| COC[C@H]1CN(c2cc(C)c3c4c(c(=O)oc3c2C)CN(C(=O)c2cc(N(C)C)c(C(=O)NS(=O)(=O)N3C5CCC3CC5)cc2Cl)CC4)CCN1C [Example 193, (R)-N-((7-azabicyclo[2.2.1]heptan-7-yl)sulfonyl)-5-chloro-2-(dimethylamino)-4-(8-(3-(methoxymethyl)-4-methylpiperazin-1-yl)-7,10-dimethyl-5-oxo-1,3,4,5-tetrahydro-2H-chromeno[3,4-c]pyridine-3-carbonyl)benzamide] | 1 to 5 µM | 0.01 to 0.1 µM | J (>30) | 0.03 to 0.1 µM |
| COC[C@H]1CN(c2cc(F)c3c4c(c(=O)oc3c2C)CN(C(=O)c2cc(N(C)C)c(C(=O)NS(=O)(=O)N3C5CCC3CC5)cc2F)CC4)CCN1C [Example 304, (R)-N-((7-azabicyclo[2.2.1]heptan-7-yl)sulfonyl)-2-(dimethylamino)-5-fluoro-4-(10-fluoro-8-(3-(methoxymethyl)-4-methylpiperazin-1-yl)-7-methyl-5-oxo-1,3,4,5-tetrahydro-2H-chromeno[3,4-c]pyridine-3-carbonyl)benzamide] | 1 to 5 µM | 0.01 to 0.1 µM |  | 0.01 to 0.03 µM |
| COC[C@H]1CN(c2cc(Cl)c3c4c(c(=O)oc3c2C)CN(C(=O)c2ccc(C(=O)NS(=O)(=O)N3C5CCC3CC5)c(OC)c2)CC4)CCN1C [Example 321, (R)-N-((7-azabicyclo[2.2.1]heptan-7-yl)sulfonyl)-4-(10-chloro-8-(3-(methoxymethyl)-4-methylpiperazin-1-yl)-7-methyl-5-oxo-1,3,4,5-tetrahydro-2H-chromeno[3,4-c]pyridine-3-carbonyl)-2-methoxybenzamide] | 1 to 5 µM | 0.01 to 0.1 µM | J (>30) | 0.03 to 0.1 µM |
